Test results taken from the supplement of paper PMC4976141.

System: PC9
Assay: cell count fold change with erlotinib, miRNA mimic vs non-targeting control (log2 ratio); higher = more drug-tolerant survivors than NTC
Settings: erlotinib 1 µM; 72 h drug + 72 h drug-free recovery; perturbation: miRNA mimic

Row | Sequence | cell count fold change with erlotinib
1 | AGGGGUGGUGUUGGGACAGCUCCGU | -0.171
2 | GUGAGGACUCGGGAGGUGG | -3.05
3 | CUCUAGAGGGAAGCGCUUUCUG | -1.78
4 | UGGAUUUCUUUGUGAAUCACCA | -4.07
5 | UCCCUGUCCUCCAGGAGCUCACG | -1.84
6 | UGGAAGACUAGUGAUUUUGUUGU | -2.71
7 | AAAGUGCAUCCUUUUAGAGGUU | -0.881
8 | CAGCAGCAAUUCAUGUUUUGAA | -3.25
9 | AAGAUGUGGAAAAAUUGGAAUC | -0.304
10 | UUGCAUAUGUAGGAUGUCCCAU | -1.06
11 | UGAGGGGCAGAGAGCGAGACUUU | -0.476
12 | AGUUUUGCAUAGUUGCACUACA | -2.57
13 | UUUGUGACCUGGUCCACUAACC | -2.85
14 | GAUUGCUCUGCGUGCGGAAUCGAC | -1.68
15 | UUACAGUUGUUCAACCAGUUACU | -2.68
16 | GAAGGCGCUUCCCUUUAGAGCG | -2.22
17 | CAUCUUACCGGACAGUGCUGGA | -0.519
18 | UUGUGUCAAUAUGCGAUGAUGU | -3.39
19 | GUGAGUCUCUAAGAAAAGAGGA | -1.43
20 | AAAGACAUAGGAUAGAGUCACCUC | -0.142
21 | UAAGGUGCAUCUAGUGCAGAUAG | -4.51
22 | CGUGUAUUUGACAAGCUGAGUU | -5.21
23 | UUCUCCAAAAGAAAGCACUUUCUG | -1.65
24 | CUGCAAAGGGAAGCCCUUUC | -3.43
25 | UUUUGCACCUUUUGGAGUGAA | -3.02
26 | CAGUGCAAUGUUAAAAGGGCAU | -3.02

Row | Sequence | cell count fold change with erlotinib
27 | UGUUUUGAUAACAGUAAUGU | -1.27
28 | AGGGCUUAGCUGCUUGUGAGCA | -3.74
29 | UGGUGCGGAGAGGGCCCACAGUG | -1.34
30 | AGUGCCUGAGGGAGUAAGAGCCC | -2.56
31 | AAAGUGCUUCUCUUUGGUGGGU | 0.279
32 | AGGUUGUCCGUGGUGAGUUCGCA | -0.399
33 | UGGAAUGUAAGGAAGUGUGUGG | -0.89
34 | UUUGUUCGUUCGGCUCGCGUGA | -4.05
35 | GAUUAGGGUGCUUAGCUGUUAA | -2.53
36 | UGGAGGAGAAGGAAGGUGAUG | 0.943
37 | AAAAGCUGGGUUGAGAGGGCGA | -2.14
38 | UAGUACCAGUACCUUGUGUUCA | -4.15
39 | CUCCAGAGGGAAGUACUUUCU | -1.13
40 | UAAGGCACGCGGUGAAUGCC | 0.453
41 | AACAUUCAACGCUGUCGGUGAGU | -3.99
42 | UGAGACCUCUGGGUUCUGAGCU | -0.719
43 | AGACCUGGCCCAGACCUCAGC | 0.672
44 | UAAGUGCUUCCAUGCUU | -0.506
45 | CUUAUGCAAGAUUCCCUUCUAC | -1.68
46 | GAAAGCGCUUCCCUUUGCUGGA | -0.859
47 | CCUCUGAAAUUCAGUUCUUCAG | -0.736
48 | AACCCGUAGAUCCGAUCUUGUG | -0.33
49 | UUCUCGAGGAAAGAAGCACUUUC | -1.6
50 | ACUGCAUUAUGAGCACUUAAAG | -0.728
51 | GAAAGCGCUUCUCUUUAGAGG | -0.525
52 | CCUCUGGGCCCUUCCUCCAG | 0.0835

Row | Sequence | cell count fold change with erlotinib
53 | GUGAAUUACCGAAGGGCCAUAA | -2.07
54 | UUCCUAUGCAUAUACUUCUUUG | -1.18
55 | CAGUGCAAUGAUGAAAGGGCAU | -2.17
56 | UCACAAUGCUGACACUCAAACUGCUGAC | -1.47
57 | CAGUGCAAUAGUAUUGUCAAAGC | -2.72
58 | UAAAGAGCCCUGUGGAGACA | -1.03
59 | CAAAGCGCUUCCCUUUGGAGC | -0.111
60 | GCAUGGGUGGUUCAGUGG | 0.259
61 | UAUGUGCCUUUGGACUACAUCG | -3.93
62 | CUCUUGAGGGAAGCACUUUCUGU | -1.33
63 | UGGGCGUAUCUGUAUGCUA | -0.274
64 | UUGUGCUUGAUCUAACCAUGU | -1.88
65 | UAGGUUAUCCGUGUUGCCUUCG | -2.37
66 | AGAGCUUAGCUGAUUGGUGAAC | -3.36
67 | AGUUUUGCAGGUUUGCAUUUCA | -0.889
68 | AGGAUGAGCAAAGAAAGUAGAUU | -2.25
69 | UGCCUGUCUACACUUGCUGUGC | -1.78
70 | AAAGUGCUUCCUUUUAGAGGG | -0.225
71 | GGUGCAGUGCUGCAUCUCUGGU | -1.52
72 | CACACACUGCAAUUACUUUUGC | -3.13
73 | UAUGGCUUUUUAUUCCUAUGUGA | -1.4
74 | UGAGAUGAAGCACUGUAGCUC | -1.52
75 | GAAGUGCUUCGAUUUUGGGGUGU | -0.122
76 | UCUCUGGGCCUGUGUCUUAGGC | 0.808
77 | CUGAAGUGAUGUGUAACUGAUCAG | -3.44
78 | AAAGUAGCUGUACCAUUUGC | -2.51

Row | Sequence | cell count fold change with erlotinib
79 | UGUGCGCAGGGAGACCUCUCCC | -1.77
80 | UCCCUGUUCGGGCGCCA | -3.09
81 | UAGGACACAUGGUCUACUUCU | -1.02
82 | UGAGUGCCGGUGCCUGCCCUG | -2.45
83 | GAUGAGCUCAUUGUAAUAUGAG | -2.97
84 | AGGUUGGGAUCGGUUGCAAUGCU | -0.41
85 | GAGUGCCUUCUUUUGGAGCGUU | -4.05
86 | AUGUAGGGCUAAAAGCCAUGGG | -1.51
87 | UGACAACUAUGGAUGAGCUCU | -1.88
88 | ACCCUAUCAAUAUUGUCUCUGC | -3.19
89 | AAAGUGCUUCCUUUUAGAGGGU | 0.14
90 | AGGCAGUGUAGUUAGCUGAUUGC | 1.35
91 | AUGCUGACAUAUUUACUAGAGG | -1.82
92 | UUCUCAAGGAGGUGUCGUUUAU | -1.83
93 | UGGUUUACCGUCCCACAUACAU | 0.24
94 | GGGGAGCUGUGGAAGCAGUA | -2.06
95 | AAUCAUACAGGGACAUCCAGUU | -1.33
96 | UCCAGCAUCAGUGAUUUUGUUG | -2.81
97 | UCCUGUACUGAGCUGCCCCGAG | -0.848
98 | AAGUGUGCAGGGCACUGGU | -3.4
99 | AUCAUGAUGGGCUCCUCGGUGU | -3.05
100 | CAUCUUCCAGUACAGUGUUGGA | 0.0817
101 | UGAGCGCCUCGACGACAGAGCCG | -1.23
102 | AUUCCUAGAAAUUGUUCAUA | 0.458
103 | AGUCAUUGGAGGGUUUGAGCAG | -3.38
104 | ACGGGUUAGGCUCUUGGGAGCU | -2.04
